Data taken from ChEMBL document CHEMBL1201862, “PubChem BioAssay data set” (2004).
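Five compound concentrations were applied to cells in 96-well plates for 48 hours; endpoints were derived by simple linear interpolation of the resulting dose-response curve. GI50: concentration for 50% inhibition of growth.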 Active and inactive are the calls of the source. Cut-off read from the data, not from the text of the source: active = GI50 up to about 1.1 µM and inactive = higher.

How the values were obtained:
Experiment in all cases: growth of human tumour cells (NCI), 48 h
IGROV-1 = system: IGROV-1
A549 = system: A549
EKVX = system: EKVX
SF-295 = system: SF-295
OVCAR-8 = system: OVCAR-8
786-0 = system: 786-0
T47D = system: T47D
UACC-62 = system: UACC-62
MCF7 = system: MCF7
COLO 205 = system: COLO 205
Malme-3M = system: Malme-3M
SK-MEL-5 = system: SK-MEL-5
UACC-257 = system: UACC-257
K562 = system: K562
RXF 393 = system: RXF 393
SN12C = system: SN12C
DU-145 = system: DU-145
MDA-MB-231 = system: MDA-MB-231
M14 = system: M14
KM12 = system: KM12
CCRF-CEM = system: CCRF-CEM
LOX IMVI = system: LOX IMVI
SK-MEL-28 = system: SK-MEL-28
MOLT-4 = system: MOLT-4
HOP-62 = system: HOP-62
HT-29 = system: HT-29
SNB-75 = system: SNB-75
TK-10 = system: TK-10
HL-60 = system: HL-60
NCI-H23 = system: NCI-H23
SK-OV-3 = system: SK-OV-3
SR = system: SR
SW-620 = system: SW-620
CAKI-1 = system: CAKI-1
PC-3 = system: PC-3
HCC 2998 = system: HCC 2998
HCT-15 = system: HCT-15
SF-268 = system: SF-268
MDA-N = system: MDA-N
RPMI-8226 = system: RPMI-8226
MDA-MB-435 = system: MDA-MB-435
SNB-19 = system: SNB-19
NCI/ADR-RES = system: NCI/ADR-RES
OVCAR-3 = system: OVCAR-3
SF-539 = system: SF-539
NCI-H522 = system: NCI-H522
SK-MEL-2 = system: SK-MEL-2
HCT-116 = system: HCT-116
NCI-H460 = system: NCI-H460
OVCAR-5 = system: OVCAR-5
A498 = system: A498
ACHN = system: ACHN
OVCAR-4 = system: OVCAR-4
U-251 = system: U-251
UO-31 = system: UO-31
NCI-H226 = system: NCI-H226
HOP-92 = system: HOP-92
Hs-578T = system: Hs-578T

C=CCc1c(O)c2nsnc2c2nsnc12
GI50 (IGROV-1): > 10 µM (inactive) | GI50 (A549): > 10 µM (inactive) | GI50 (EKVX): > 10 µM (inactive) | GI50 (SF-295): > 10 µM (inactive) | GI50 (OVCAR-8): > 10 µM (inactive) | GI50 (786-0): > 10 µM (inactive) | GI50 (T47D): > 10 µM (inactive) | GI50 (UACC-62): > 10 µM (inactive) | GI50 (MCF7): > 10 µM (inactive) | GI50 (COLO 205): > 10 µM (inactive) | GI50 (Malme-3M): > 10 µM (inactive) | GI50 (SK-MEL-5): > 10 µM (inactive) | GI50 (UACC-257): > 10 µM (inactive) | GI50 (K562): > 10 µM (inactive) | GI50 (RXF 393): > 10 µM (inactive) | GI50 (SN12C): > 10 µM (inactive) | GI50 (DU-145): > 10 µM (inactive) | GI50 (MDA-MB-231): > 10 µM (inactive) | GI50 (M14): > 10 µM (inactive) | GI50 (KM12): > 10 µM (inactive) | GI50 (CCRF-CEM): > 10 µM (inactive) | GI50 (LOX IMVI): > 10 µM (inactive) | GI50 (SK-MEL-28): > 10 µM (inactive) | GI50 (MOLT-4): > 10 µM (inactive) | GI50 (HOP-62): > 10 µM (inactive) | GI50 (HT-29): > 10 µM (inactive) | GI50 (SNB-75): > 10 µM (inactive) | GI50 (TK-10): > 10 µM (inactive) | GI50 (HL-60): > 10 µM (inactive) | GI50 (NCI-H23): > 10 µM (inactive) | GI50 (SK-OV-3): > 10 µM (inactive) | GI50 (SR): > 10 µM (inactive) | GI50 (SW-620): > 10 µM (inactive) | GI50 (CAKI-1): > 10 µM (inactive) | GI50 (PC-3): > 10 µM (inactive) | GI50 (HCC 2998): > 10 µM (inactive) | GI50 (HCT-15): > 10 µM | GI50 (SF-268): > 10 µM (inactive) | GI50 (MDA-N): > 10 µM (inactive) | GI50 (RPMI-8226): > 10 µM (inactive)

CNC(=O)CNC(=O)CCC(=O)OC
GI50 (MDA-MB-435): > 100 µM (inactive) | GI50 (A549): > 100 µM (inactive) | GI50 (SF-295): > 100 µM (inactive) | GI50 (OVCAR-8): > 100 µM (inactive) | GI50 (786-0): > 100 µM (inactive) | GI50 (T47D): > 100 µM (inactive) | GI50 (UACC-62): > 100 µM (inactive) | GI50 (MCF7): > 100 µM (inactive) | GI50 (SNB-19): > 100 µM (inactive) | GI50 (COLO 205): > 100 µM (inactive) | GI50 (SK-MEL-5): > 100 µM (inactive) | GI50 (NCI/ADR-RES): > 100 µM (inactive) | GI50 (K562): > 100 µM (inactive) | GI50 (OVCAR-3): > 100 µM (inactive) | GI50 (SF-539): > 100 µM (inactive) | GI50 (RXF 393): > 100 µM (inactive) | GI50 (SN12C): > 100 µM (inactive) | GI50 (DU-145): > 100 µM (inactive) | GI50 (MDA-MB-231): > 100 µM (inactive) | GI50 (NCI-H522): 66.2 µM (inactive) | GI50 (SK-MEL-2): > 100 µM (inactive) | GI50 (M14): > 100 µM (inactive) | GI50 (KM12): > 100 µM (inactive) | GI50 (HCT-116): > 100 µM (inactive) | GI50 (NCI-H460): > 100 µM (inactive) | GI50 (SK-MEL-28): > 100 µM (inactive) | GI50 (MOLT-4): > 100 µM (inactive) | GI50 (HOP-62): > 100 µM (inactive) | GI50 (HT-29): > 100 µM (inactive) | GI50 (TK-10): > 100 µM (inactive) | GI50 (OVCAR-5): > 100 µM (inactive) | GI50 (NCI-H23): > 100 µM (inactive) | GI50 (SK-OV-3): > 100 µM (inactive) | GI50 (A498): > 100 µM (inactive) | GI50 (SW-620): > 100 µM (inactive) | GI50 (CAKI-1): > 100 µM (inactive) | GI50 (PC-3): > 100 µM (inactive) | GI50 (ACHN): > 100 µM (inactive) | GI50 (OVCAR-4): > 100 µM (inactive) | GI50 (SF-268): > 100 µM (inactive) | GI50 (U-251): > 100 µM (inactive) | GI50 (MDA-N): > 100 µM (inactive) | GI50 (UO-31): > 100 µM (inactive)

Cc1ccc(CC[PH](=O)CCc2ccc(C)nc2)cn1
GI50 (MDA-MB-435): > 100 µM (inactive) | GI50 (IGROV-1): > 100 µM (inactive) | GI50 (EKVX): > 100 µM (inactive) | GI50 (SF-295): > 100 µM (inactive) | GI50 (OVCAR-8): > 100 µM (inactive) | GI50 (786-0): > 100 µM (inactive) | GI50 (T47D): > 100 µM (inactive) | GI50 (UACC-62): > 100 µM (inactive) | GI50 (MCF7): > 100 µM (inactive) | GI50 (SNB-19): > 100 µM (inactive) | GI50 (COLO 205): > 100 µM (inactive) | GI50 (Malme-3M): > 100 µM (inactive) | GI50 (SK-MEL-5): > 100 µM (inactive) | GI50 (NCI-H226): > 100 µM (inactive) | GI50 (UACC-257): > 100 µM (inactive) | GI50 (NCI/ADR-RES): > 100 µM (inactive) | GI50 (K562): > 100 µM (inactive) | GI50 (OVCAR-3): > 100 µM (inactive) | GI50 (SF-539): > 100 µM (inactive) | GI50 (RXF 393): > 100 µM (inactive) | GI50 (SN12C): > 100 µM (inactive) | GI50 (DU-145): > 100 µM (inactive) | GI50 (MDA-MB-231): > 100 µM (inactive) | GI50 (NCI-H522): > 100 µM (inactive) | GI50 (M14): > 100 µM (inactive) | GI50 (KM12): > 100 µM (inactive) | GI50 (HCT-116): > 100 µM (inactive) | GI50 (CCRF-CEM): > 100 µM (inactive) | GI50 (LOX IMVI): > 100 µM (inactive) | GI50 (NCI-H460): > 100 µM (inactive) | GI50 (SK-MEL-28): > 100 µM (inactive) | GI50 (MOLT-4): > 100 µM (inactive) | GI50 (HOP-62): > 100 µM (inactive) | GI50 (HT-29): > 100 µM (inactive) | GI50 (HOP-92): > 100 µM (inactive) | GI50 (TK-10): > 100 µM (inactive) | GI50 (HL-60): > 100 µM (inactive) | GI50 (OVCAR-5): > 100 µM (inactive) | GI50 (NCI-H23): > 100 µM (inactive) | GI50 (SK-OV-3): > 100 µM (inactive) | GI50 (SR): > 100 µM (inactive) | GI50 (SW-620): > 100 µM (inactive) | GI50 (CAKI-1): > 100 µM (inactive) | GI50 (PC-3): > 100 µM (inactive) | GI50 (ACHN): > 100 µM (inactive) | GI50 (HCC 2998): > 100 µM (inactive) | GI50 (Hs-578T): > 100 µM (inactive) | GI50 (HCT-15): > 100 µM | GI50 (OVCAR-4): > 100 µM (inactive) | GI50 (SF-268): > 100 µM (inactive) | GI50 (U-251): > 100 µM (inactive) | GI50 (MDA-N): > 100 µM (inactive) | GI50 (RPMI-8226): > 100 µM (inactive)
